Assay results taken from patent publication US5294701A, “Anthracycline compounds and intermediates” (Pharmachemie B.V., priority 1990, dated 1994).
Values after ≈ are worked out from the molar mass of the structure shown. Where a name gives a salt, the structure may show the parent alone. Read-outs that look alike come from different tables or passages of the source.

Legend:
Format in all cases: cell-based
[1] = test system: T 24 bladder carcinoma cells (T-cells); assay: Inhibition of growth of human tumour cell line T 24 in vitro (PIT method of van Lambalgen and Lelieveld)
Protocol: (§1) A number of compounds were examined with the following human tumour cell lines according to the method of R. van Lambalgen and P. Lelieveld, "The PIT method: and automated in vitro technique for drug toxicity testing", Invest. New Drugs 5, 161-165, 1987.
T 24 bladder carcinoma cells (T-cells)
(§2) The cell lines where maintained in a continuous logarithmic culture in Dulbeco's medium supplemented with 10% fetal calf serum, penicillin (100 IU/ml) and streptomycin (100 μg/ml).
(§3) The ID50 values of the above compounds, expressed in ng/ml, where determined according to the abovementioned method of van Lambalgen and Lelieveld. The ID50 value is the amount which inhibits 50% of the cell growth.

[2] = test system: WiDr colon tumour cells (W-cells); assay: Inhibition of growth of human tumour cell line WiDr in vitro (PIT method of van Lambalgen and Lelieveld); details: read-out: ID50 values in ng/ml, WiDr (amount which inhibits 50% of the cell growth)
Protocol: as §1
WiDr colon tumour cells (W-cells)
as §2, §3

[3] = test system: MCF-7 mammary carcinoma cells (M-cells); assay: Inhibition of growth of human tumour cell line MCF-7 in vitro (PIT method of van Lambalgen and Lelieveld)
Protocol: as §1
MCF-7 mammary carcinoma cells (M-cells)
as §2, §3

[4] = test system: A 204 rhabdomyosarcoma (A-cells); assay: Inhibition of growth of human tumour cell line A 204 in vitro (PIT method of van Lambalgen and Lelieveld)
Protocol: as §1
A 204 rhabdomyosarcoma (A-cells)
as §2, §3

[5] = test system: IgR-37 melanoma cells (Z-cells); assay: Inhibition of growth of human tumour cell line IgR-37 in vitro (PIT method of van Lambalgen and Lelieveld)
Protocol: as §1
IgR-37 melanoma cells (Z-cells)
as §2, §3

[6] = T24, T 24 bladder carcinoma cells, read-out: ID50 values in ng/ml, T24 (amount which inhibits 50% of the cell growth)
[7] = MCF7, MCF-7 mammary carcinoma cells, read-out: ID50 values in ng/ml, MCF-7 (amount which inhibits 50% of the cell growth)
[8] = A204, A 204 rhabdomyosarcoma cells, read-out: ID50 values in ng/ml, A204 (amount which inhibits 50% of the cell growth)
[9] = IgR-37 melanoma cells, read-out: ID50 values in ng/ml, IgR-37 (amount which inhibits 50% of the cell growth)
[10] = T24, read-out: ID50 values in ng/ml, T24 (amount which inhibits 50% of the cell growth)
[11] = MCF7, read-out: ID50 values in ng/ml, MCF-7 (amount which inhibits 50% of the cell growth)
[12] = A204, read-out: ID50 values in ng/ml, A204 (amount which inhibits 50% of the cell growth)
[13] = IGR-37, read-out: ID50 values in ng/ml, IgR-37 (amount which inhibits 50% of the cell growth)

Row | IC50 [1, 6] [ng/mL] | IC50 ([2]; WiDr colon tumour cells) [ng/mL] | IC50 [3, 7] [ng/mL] | IC50 [4, 8] [ng/mL] | IC50 [5, 9] [ng/mL] | SMILES | IC50 [1, 10] [ng/mL] | IC50 ([2]; WiDr) [ng/mL] | IC50 [3, 11] [ng/mL] | IC50 [4, 12] [ng/mL] | IC50 [5, 13] [ng/mL]
1 | 173 (≈ 0.338 µM) | 139 (≈ 0.271 µM) | 67 (≈ 0.131 µM) | 45 (≈ 0.0878 µM) | 77 (≈ 0.15 µM) | CC(=O)C1(O)Cc2c(O)c3c(c(O)c2C(O[C@H]2C[C@H](N)[C@H](O)[C@H](C)O2)C1)C(=O)c1cc(C)cnc1C3=O (some centres unmarked) [HRM11] | – | – | – | – | –
2 | – | – | – | – | – | COc1cccc2c1C(=O)c1c(O)c3c(c(O)c1C2=O)C[C@@](O)(C(C)=O)C[C@@H]3O[C@H]1C[C@H](N)[C@H](O)[C@H](C)O1 [Daunomycin.HCl, Daunomycin, reference compound] | 4 | 3 | 1 | 1 | 1
3 | 949 (≈ 1.85 µM) | 779 (≈ 1.52 µM) | 334 (≈ 0.652 µM) | 171 (≈ 0.334 µM) | 459 (≈ 0.896 µM) | CC(=O)C1(O)Cc2c(O)c3c(c(O)c2C(O[C@H]2C[C@H](N)[C@H](O)[C@H](C)O2)C1)C(=O)c1ncc(C)cc1C3=O (some centres unmarked) [HRM15] | – | – | – | – | –
4 | – | – | – | – | – | C[C@@H]1O[C@@H](O[C@H]2C[C@](O)(C#C[Si](C)(C)C)Cc3c(O)c4c(c(O)c32)C(=O)c2ccccc2C4=O)C[C@H](NC(=O)C(F)(F)F)[C@@H]1O [HRM03] | 444 (≈ 0.686 µM) | 156 (≈ 0.241 µM) | 151 (≈ 0.233 µM) | 97 (≈ 0.15 µM) | 146 (≈ 0.225 µM)
5 | 1140 (≈ 2.3 µM) | 501 (≈ 1.01 µM) | 745 (≈ 1.5 µM) | 302 (≈ 0.607 µM) | 618 (≈ 1.24 µM) | CC(=O)[C@@]1(O)Cc2c(O)c3c(c(O)c2[C@H](O[C@H]2C[C@H](N)[C@H](O)[C@H](C)O2)C1)C(=O)c1ccccc1C3=O [HRM09, α-7.9-bis-epi-4-demethoxydaunomycin, reference compound] | – | – | – | – | –
6 | 2 (≈ 0.00417 µM) | 4 (≈ 0.00834 µM) | 1 (≈ 0.00209 µM) | 0.3 (≈ 0.000626 µM) | 2 (≈ 0.00417 µM) | C#C[C@]1(O)Cc2c(O)c3c(c(O)c2[C@@H](O[C@H]2C[C@H](N)[C@H](O)[C@H](C)O2)C1)C(=O)c1ccccc1C3=O [HRM01] | – | – | – | – | –
7 | 75 (≈ 0.13 µM) | 43 (≈ 0.0747 µM) | 14 (≈ 0.0243 µM) | 14 (≈ 0.0243 µM) | 18 (≈ 0.0313 µM) | C#C[C@]1(O)Cc2c(O)c3c(c(O)c2[C@@H](O[C@H]2C[C@H](NC(=O)C(F)(F)F)[C@H](O)[C@H](C)O2)C1)C(=O)c1ccccc1C3=O [HRM04] | – | – | – | – | –
8 | 1050 (≈ 2.34 µM) | 1420 (≈ 3.18 µM) | 542 (≈ 1.21 µM) | 729 (≈ 1.63 µM) | 2440 (≈ 5.46 µM) | CC(=O)[C@]1(O)CC2=C(C(=O)c3c(O)ccc(O)c3C2=O)[C@@H](O[C@H]2C[C@H](N)[C@H](O)[C@H](C)O2)C1 [HRM13] | – | – | – | – | –
9 | – | – | – | – | – | COc1cc([C@@H]2c3cc4c(cc3[C@@H](O[C@@H]3O[C@@H]5CO[C@@H](C)O[C@H]5[C@H](O)[C@H]3O)[C@H]3COC(=O)[C@H]23)OCO4)cc(OC)c1O [Etoposide, reference compound] | 457 (≈ 0.776 µM) | 624 (≈ 1.06 µM) | 187 (≈ 0.318 µM) | 91 (≈ 0.155 µM) | 427 (≈ 0.725 µM)
10 | – | – | – | – | – | COc1cccc2c1C(=O)c1c(O)c3c(c(O)c1C2=O)C[C@@](O)(C(=O)CO)C[C@@H]3O[C@H]1C[C@H](N)[C@H](O)[C@H](C)O1 [Adramycin.HCl, Adriamycin, reference compound] | 18 | 16 | 6 | 4 | 6
11 | 728 (≈ 1.52 µM) | 372 (≈ 0.776 µM) | 420 (≈ 0.876 µM) | 243 (≈ 0.507 µM) | 469 (≈ 0.978 µM) | C#C[C@@]1(O)Cc2c(O)c3c(c(O)c2[C@H](O[C@H]2C[C@H](N)[C@H](O)[C@H](C)O2)C1)C(=O)c1ccccc1C3=O [HRM10] | – | – | – | – | –

Row | SMILES | IC50 [1, 6] [ng/mL] | IC50 ([2]; WiDr colon tumour cells) [ng/mL] | IC50 [3, 7] [ng/mL] | IC50 [4, 8] [ng/mL] | IC50 [5, 9] [ng/mL] | IC50 [1, 10] [ng/mL] | IC50 ([2]; WiDr) [ng/mL] | IC50 [3, 11] [ng/mL] | IC50 [4, 12] [ng/mL] | IC50 [5, 13] [ng/mL]
12 | C#C[C@]1(O)CC2=C(C(=O)c3c(O)ccc(O)c3C2=O)[C@@H](O[C@H]2C[C@H](N)[C@H](O)[C@H](C)O2)C1 [HRM16] | 1260 (≈ 2.94 µM) | 2120 (≈ 4.93 µM) | 338 (≈ 0.787 µM) | 280 (≈ 0.652 µM) | 1940 (≈ 4.51 µM) | – | – | – | – | –
13 | C#C[C@]1(O)Cc2c(O)c3c(c(O)c2[C@@H](O[C@H]2C[C@H](N)[C@H](O)[C@H](C)O2)C1)C(=O)c1c(OC)cccc1C3=O [HRM12] | 140 (≈ 0.275 µM) | 87 (≈ 0.171 µM) | 39 (≈ 0.0765 µM) | 21 (≈ 0.0412 µM) | 63 (≈ 0.124 µM) | – | – | – | – | –
